Values joined by “and” are separate entries in the source; they are usually repeats but may differ in a detail not shown here. Equal values may be shown once.
Experiments:
AR/Src complex = biological target: T1, AR/Src complex (Homo sapiens, UniProt P12931); assay: EGFR/AR/Src association by immunoprecipitation in EGF-stimulated HT1080 cells; format: cell-based; conditions: EGF 100 ng/ml 10 min, peptide 1 nM
T1 construct: endogenous in cells; host or cells: HT1080 human fibrosarcoma cells
Description: (§1) FIG. 3: Inhibition by S1 peptide of AR/Src complex, Src activation and DNA synthesis triggered by EGF in HT1080 cells. Quiescent HT1080 cells were used. The cells were left un-stimulated or stimulated for 10 min with EGF (at 100 ng/ml; Roche) in the absence or presence of S1 or Ss peptide (both at 1 nM). Casodex (at 10 μM) was used for comparison with the S1 peptide. The same concentrations of peptides and Casodex were used throughout the experiments. Upper section in A, the Western blot of HT1080 cell lysates with anti-EGFR antibody is shown. […] Lower section in A, lysates were immune-precipitated with anti EGFR Ab and proteins in immune-complexes were detected using antibodies against the indicated proteins. In B, lysates were immune-precipitated with the anti-Src MAb and Src activity in immune-complexes was assayed using enolase as a substrate. In C, cells on coverslips were left untreated or treated for 18 h with the indicated compounds. After in vivo pulse with BrdU (100 μM; Sigma), BrdU incorporation was analyzed by IF and expressed as % of total nuclei. Mean and SEM are shown. n represents the number of experiments.
(§2) Src tyrosine kinase was immune-precipitated, detected and assayed using enolase as a substrate (15). Src, EGF-R and tubulin were detected from cell lysates using appropriate antibodies (7). AR was immune-precipitated and detected as reported (3). […]

Src = biological target: T2, Src (Homo sapiens, UniProt P12931); assay: Src kinase assay in immune-complexes with enolase as substrate, EGF-stimulated HT1080 cells; format: cell-based; conditions: EGF 100 ng/ml 10 min, peptide 1 nM
T2 construct: lysates were immune-precipitated with the anti-Src MAb and Src activity in immune-complexes was assayed using enolase as a substrate; endogenous in cells; host or cells: HT1080 human fibrosarcoma cells
T2 sequence (P12931 whole entry): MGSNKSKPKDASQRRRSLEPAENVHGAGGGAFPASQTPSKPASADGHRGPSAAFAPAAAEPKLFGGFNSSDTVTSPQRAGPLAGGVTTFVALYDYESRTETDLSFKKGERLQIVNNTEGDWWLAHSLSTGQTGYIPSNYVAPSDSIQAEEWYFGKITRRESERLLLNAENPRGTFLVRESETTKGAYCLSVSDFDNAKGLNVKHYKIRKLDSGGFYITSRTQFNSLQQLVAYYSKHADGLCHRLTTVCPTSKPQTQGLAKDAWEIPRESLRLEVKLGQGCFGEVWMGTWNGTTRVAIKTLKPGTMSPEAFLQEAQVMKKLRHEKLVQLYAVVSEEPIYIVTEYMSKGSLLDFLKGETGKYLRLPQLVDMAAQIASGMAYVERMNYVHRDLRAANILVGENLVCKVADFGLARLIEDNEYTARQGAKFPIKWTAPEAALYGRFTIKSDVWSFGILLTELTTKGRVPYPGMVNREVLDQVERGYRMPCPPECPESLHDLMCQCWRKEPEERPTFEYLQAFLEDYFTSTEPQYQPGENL
Description: as §1, §2

MMP-9 = MMP-9 release from HT1080 cells (fluorescent AK411 kit); format: cell-based, human; conditions: 6 h, peptide 1 nM
Description: FIG. 4: The S1 peptide inhibits EGF-stimulated migration and MMP-9 secretion in HT1080 cells. Quiescent HT1080 cells were used. In A, cells were left untreated or treated for 6 h with the indicated compounds. MMP-9 release was assayed as described in Methods. In B, cells were allowed to migrate for 6 h in Trans-well filters in the absence or presence of the indicated compounds. Migrated cells were stained and counted as reported in Methods. In A and B, data were expressed as relative increase. Mean and SEM is shown. n represents the number of experiments. In C, cells were wounded and then left unstimulated or stimulated for 6 h with the indicated compounds. Contrast-phase images are representative of 3 different experiments, each performed in duplicate.
BrdU incorporation, migration and wound healing analysis were done as described (3, 11). MMP-9 activity was assayed (12, 13), using the fluorescent AK411 kit (BIOMOL Res. Lab.).

PC-3 cells = assay: PC-3 cell proliferation, WST-1; format: cell-based, human; conditions: 100 pM-1 μM, WST-1 at days 3, 5, 7, 9; statistically significant with all doses above 100 pM
Description: We have studied the effects of Val201 on cell proliferation of the ER positive human prostate cancer cell line PC-3 in vitro and growth and metastatis in vivo in an orthotopic xenograft model. The proliferation effects were studied for 100 pM, 1 nM, 10 nM, 100 nM and 1 μM concentrations of VAL201 by measuring WST-1 values at days 3, 5, 7 and 9. Groups with vehicle and 1 μM gemcitabine as reference compound were included in the study. The xenograft study was performed with 6-7 week-old immunodeficient BALB/c nude mice that were allocated to 6 groups (with n=15/group) according to the body weight, one group receiving vehicle and the others VAL201 at doses 0.04, 0.4, 4, 10 and 20 mg/kg. PC-3 cells in Matrigel were inoculated orthotopically into the prostate. Subcutaneous dosing was started at day 1 and continued daily for 28 days. The mice were weighed twice a week. Orthotopic tumors were measured by calliper and the prostate and the regional lymph nodes were harvested at sacrifice. Metastases in lymph nodes were determined from HE stained paraffin sections.

endometriosis lesion = assay: In-vivo model of endometriosis (K-ras transgenic donor tissue in wild-type animals), first study; design: species or system mice; conditions: injected for 21 days, four treated animals
Description: In a first study, a total of 4 treatment and 5 control animals were generated in a novel in-vivo model of endometriosis (Research Horizons, University of Cambridge, 2009 Issue 8, GB 0715635.9) K-rasV12/Ah-Cre transgenic mice were crossed with Rosa26R mice to generate KrasV12+/−/Ah-Cre+/−/ROSA26R-LacZ+/− transgenic mice. The F1 offspring were inbred to generate F2 K-rasV12+/−/Ah-Cre+/+/ROSA26R-LacZ+/+ transgenic mice. The presence of the transgenes was determined by PCR using gene specific primers for K-ras, Cre and Rosa26R-LacZ. Tissue was collected from donor animals previously treated with hormones etc. and was divided between wild-type animals that were then injected with drug or vehicle for 21 days.

[1] = test system: plugs of uterine tissue (endometriosis lesions); assay: Dose ranging prevention study: lesion burden, growth and establishment of transplanted uterine tissue plugs; format: in vivo, C57BL6 mice; conditions: for Lesion establishment, single plug (P1-P4, M1, M2): 1 or 0 per plug, individual mouse; for Lesion establishment, single plug (P1-P4, M1, M2) / Lesion burden, Ave / Lesion growth, Ave / Lesion burden, Mean / Lesion establishment, Mean / Lesion growth, Mean / Lesion burden, single plug (P1-P6) / Lesion growth, single plug (P1-P4, M1, M2) / Lesion establishment, Ave: prevention; for Lesion burden, Ave / Lesion growth, Ave: average per mouse; for lesion burden / lesion growth: control 7.18; for Lesion burden, Mean / Lesion establishment, Mean / Lesion growth, Mean: group mean; for Lesion burden, single plug (P1-P6) / Lesion growth, single plug (P1-P4, M1, M2): individual mouse and plug; for Lesion establishment, Ave: per mouse
[2] = 1 ng/mouse s.c. daily, listed as ValiRx1
[3] = 10 ng/mouse s.c. daily, listed as ValiRx1
[4] = 100 ng/mouse s.c. daily, listed as ValiRx1
[5] = first of three dose groups (1 ng, 10 ng, 100 ng daily s.c.)
[6] = second of three dose groups (1 ng, 10 ng, 100 ng daily s.c.)
[7] = third of three dose groups (1 ng, 10 ng, 100 ng daily s.c.)

T1 sequence (P12931 2-536 limits assumed, one chain of several): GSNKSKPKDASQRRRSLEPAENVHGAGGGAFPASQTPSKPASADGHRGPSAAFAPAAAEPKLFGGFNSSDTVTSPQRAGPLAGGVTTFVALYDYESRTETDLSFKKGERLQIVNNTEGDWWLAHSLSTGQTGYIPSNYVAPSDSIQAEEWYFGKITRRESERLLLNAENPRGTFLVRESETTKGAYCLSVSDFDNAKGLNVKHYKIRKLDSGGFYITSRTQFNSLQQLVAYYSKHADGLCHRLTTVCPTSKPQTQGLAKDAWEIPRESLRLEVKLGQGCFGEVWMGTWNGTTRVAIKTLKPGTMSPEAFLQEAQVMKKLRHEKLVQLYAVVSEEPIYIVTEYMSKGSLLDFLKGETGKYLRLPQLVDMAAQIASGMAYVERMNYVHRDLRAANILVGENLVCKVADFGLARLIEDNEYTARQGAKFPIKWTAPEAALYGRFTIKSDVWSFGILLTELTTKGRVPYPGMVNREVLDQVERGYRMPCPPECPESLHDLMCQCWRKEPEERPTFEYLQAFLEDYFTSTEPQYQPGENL

## Ac-PPPHPHARIK-NH2 [VAL001]
AR/Src complex
  EGF-induced AR/Src association and AR/Src association with EGF-R: abolishes
Src
  EGF stimulation of Src activity: almost completely abolished
MMP-9
  EGF-stimulated MMP-9 secretion: inhibits
PC-3 cells
  PC-3 cell proliferation: dose-dependent inhibition
Endometriosis lesion
  absence of lesion following treatment: three showed complete absence of lesion
[1]; [2]
  Lesion establishment, single plug (P1-P4, M1, M2): 1 (29×) and 0
  Lesion burden, Ave: 6.5 mm^2 and 8.5 mm^2 and 1.1 mm^2 and 1.9 mm^2 and 12.1 mm^2
  Lesion growth, Ave: 6.5 mm^2 and 8.5 mm^2 and 1.3 mm^2 and 1.9 mm^2 and 12.1 mm^2
  Lesion burden, single plug (P1-P6): 1.1 mm^2 (3×) and 3.1 mm^2 and 2.5 mm^2 and 4.2 mm^2 and 16.7 mm^2 and 15.2 mm^2 and 3.8 mm^2 (2×) and 0.2 mm^2 (3×) and 6.2 mm^2 and 0.5 mm^2 and 9.4 mm^2 and 0.0 mm^2 and 3.5 mm^2 (2×) and 17.0 mm^2 and 11.2 mm^2 and 8.0 mm^2 (2×) and 15.1 mm^2 and 5.7 mm^2 and 10.2 mm^2 and 10.6 mm^2 and 16.6 mm^2 and 1.8 mm^2 and 0.1 mm^2
  Lesion growth, single plug (P1-P4, M1, M2): 1.131 mm^2 (3×) and 3.142 mm^2 and 2.545 mm^2 and 4.155 mm^2 and 16.74 mm^2 and 15.21 mm^2 and 3.801 mm^2 (2×) and 0.196 mm^2 (3×) and 6.158 mm^2 and 0.503 mm^2 and 9.425 mm^2 and 3.456 mm^2 and 3.464 mm^2 and 16.96 mm^2 and 11.2 mm^2 and 8.042 mm^2 (2×) and 15.1 mm^2 and 5.694 mm^2 and 10.18 mm^2 and 10.56 mm^2 and 16.62 mm^2 and 1.767 mm^2 and 0.126 mm^2
  Lesion establishment, Ave: 100% (4×) and 83.33%
[1]; [3]
  Lesion establishment, single plug (P1-P4, M1, M2): 1 (29×) and 0
  Lesion burden, Ave: 2.9 mm^2 and 6.7 mm^2 and 11.3 mm^2 and 3.3 mm^2 and 3.5 mm^2
  Lesion growth, Ave: 2.9 mm^2 and 6.7 mm^2 and 11.3 mm^2 and 3.3 mm^2 and 4.2 mm^2
  Lesion burden, single plug (P1-P6): 1.0 mm^2 (3×) and 3.5 mm^2 (5×) and 10.9 mm^2 and 7.3 mm^2 and 10.0 mm^2 and 4.5 mm^2 (2×) and 12.6 mm^2 and 7.0 mm^2 and 9.6 mm^2 and 3.1 mm^2 (2×) and 1.1 mm^2 and 2.5 mm^2 and 0.2 mm^2 and 6.7 mm^2 and 7.1 mm^2 and 5.4 mm^2 and 21.1 mm^2 and 12.1 mm^2 and 3.0 mm^2 and 0.0 mm^2 and 4.0 mm^2 and 9.7 mm^2
  Lesion growth, single plug (P1-P4, M1, M2): 0.95 mm^2 (3×) and 3.464 mm^2 (5×) and 10.95 mm^2 and 7.288 mm^2 and 10.02 mm^2 and 4.524 mm^2 (2×) and 12.57 mm^2 and 7.037 mm^2 and 9.621 mm^2 and 3.142 mm^2 (2×) and 1.131 mm^2 and 2.545 mm^2 and 0.196 mm^2 and 6.739 mm^2 and 7.069 mm^2 and 5.372 mm^2 and 21.11 mm^2 and 12.06 mm^2 and 2.969 mm^2 and 3.958 mm^2 and 9.66 mm^2
  Lesion establishment, Ave: 100% (4×) and 83.33%
[1]; 100 ng/mouse s.c. daily
  Lesion establishment, single plug (P1-P4, M1, M2): 1
  Lesion burden, Mean: 4.52 mm^2
  Lesion establishment, Mean: 100.00%
  Lesion growth, Mean: 4.52 mm^2
  Lesion establishment, Ave: 100%
[1]; [4]
  Lesion burden, Ave: 11.8 mm^2 and 1.8 mm^2 and 3.2 mm^2 and 3.0 mm^2 and 2.9 mm^2
  Lesion growth, Ave: 11.8 mm^2 and 1.8 mm^2 and 3.2 mm^2 and 3.0 mm^2 and 2.9 mm^2
  Lesion burden, single plug (P1-P6): 7.0 mm^2 and 18.5 mm^2 and 11.0 mm^2 and 4.5 mm^2 and 2.8 mm^2 (3×) and 2.3 mm^2 (3×) and 2.0 mm^2 (2×) and 3.1 mm^2 and 3.5 mm^2 (3×) and 1.5 mm^2 and 4.9 mm^2 and 8.4 mm^2 and 12.6 mm^2 and 13.2 mm^2 and 0.2 mm^2 and 1.0 mm^2 and 0.3 mm^2 (2×) and 3.8 mm^2 (2×) and 7.5 mm^2 and 2.5 mm^2 and 1.8 mm^2
  Lesion growth, single plug (P1-P4, M1, M2): 7.037 mm^2 and 18.47 mm^2 and 11 mm^2 and 4.453 mm^2 and 2.827 mm^2 (2×) and 2.27 mm^2 (3×) and 2.011 mm^2 (2×) and 3.142 mm^2 and 3.464 mm^2 (3×) and 1.539 mm^2 and 4.909 mm^2 and 8.357 mm^2 and 12.57 mm^2 and 13.2 mm^2 and 0.196 mm^2 and 0.95 mm^2 and 0.283 mm^2 (2×) and 3.801 mm^2 (2×) and 7.548 mm^2 and 2.545 mm^2 and 2.835 mm^2 and 1.767 mm^2
[1]; daily 1 ng, 10 ng or 100 ng s.c., dosed group vs control
  lesion growth following treatment: significantly reduced
[1]; [5]
  lesion burden: 6.02 mm^2
  lesion growth: 6.23 mm^2
[1]; 1 ng/mouse s.c. daily
  Lesion burden, Mean: 6.02 mm^2
  Lesion establishment, Mean: 96.67%
  Lesion growth, Mean: 6.23 mm^2
[1]; 10 ng/mouse s.c. daily
  Lesion burden, Mean: 5.53 mm^2
  Lesion establishment, Mean: 96.67%
  Lesion growth, Mean: 5.72 mm^2
[1]; [6]
  lesion burden: 5.53 mm^2
  lesion growth: 5.72 mm^2
[1]; [7]
  lesion burden: 4.52 mm^2
  lesion growth: 4.52 mm^2

Source: patent US10400008B2, “Modulators of the SRC-kinase activity for preventing or treating metastatic cancer” (Cancer Research Technology Limited, priority 2013, dated 2019)
